Source: patent US5270344A, “Method of treating a systemic disorder using trioxolane and diperoxide compounds” (priority 1992, dated 1993)
In brackets after ≈: the same amount, converted by molar mass. Like-named read-outs stand apart in the source and are kept apart here.

Key:
Leishmania major = tested on: Leishmania major; set-up: species or system balb/c mice; conditions: mouse, in vivo
Archromobacter = format: cell-based, Achromobacter
Pseudomonas [1] = format: cell-based, Pseudomonas spp.
[2] = tested on: Myeloma cell line (×63 balb/c line); format: cell-based, balb/c (mouse)
Salmonella [3] = format: cell-based, Salmonella spp.
Candida [4] = format: cell-based, Candida spp.
Candida [5] = format: cell-based, Candida spp.; remark: listed apart in the source
Pseudomonas [6] = format: cell-based, Pseudomonas spp.; remark: listed apart in the source
Shigella [7] = format: cell-based, Shigella spp.
human spermatozoa = format: cell-based
EPEC/ETEC [8] = format: cell-based, enteropathogenic/enterotoxigenic Escherichia coli
Kiebisella = format: cell-based, Klebsiella spp.
Ph. verrucose = format: cell-based, Phialophora verrucose
S. epidermidis = format: cell-based, Staphylococcus epidermidis
Shigella [9] = format: cell-based, Shigella spp.; remark: listed apart in the source
Candida [10] = format: cell-based, Candida spp.; remark: listed apart in the source
EPEC/ETEC [11] = format: cell-based, enteropathogenic/enterotoxigenic Escherichia coli; remark: listed apart in the source
Salmonella [12] = format: cell-based, Salmonella spp.; remark: listed apart in the source
C. albicans = format: cell-based, Candida albicans
Shigella [13] = format: cell-based, Shigella spp.; remark: listed apart in the source
Tri. canis = format: cell-based, Trichophyton canis
Salmonella [14] = format: cell-based, Salmonella spp.; remark: listed apart in the source
S. aureus [15] = format: cell-based, Staphylococcus aureus
EPEC/ETEC [16] = format: cell-based, enteropathogenic/enterotoxigenic Escherichia coli; remark: listed apart in the source
[17] = tested on: commonly encountered microorganisms; format: cell-based, bacteria and fungi
S. aureus [18] = format: cell-based, Staphylococcus aureus; remark: listed apart in the source
EPEC/ETEC [19] = format: cell-based, enteropathogenic/enterotoxigenic Escherichia coli; remark: listed apart in the source
Leishmania donova = tested on: Leishmania donova; set-up: species or system Balb/c mice; conditions: mouse, in vivo
Salmonella [20] = format: cell-based, Salmonella spp.; remark: listed apart in the source
Pseudomonas [21] = format: cell-based, Pseudomonas spp.; remark: listed apart in the source
N. gonorrhoea = format: cell-based, Neisseria gonorrhoea
lymphocytes = tested on: lymphocytes; set-up: species or system Balb/c mice; conditions: mouse, in vivo
Shigella [22] = format: cell-based, Shigella spp.; remark: listed apart in the source
Cryptococcus = format: cell-based, Cryptoccus spp.
Pseudomonas [23] = format: cell-based, Pseudomonas spp.; remark: listed apart in the source
E. coli = format: cell-based
S. aureus [24] = format: cell-based, Staphylococcus aureus; remark: listed apart in the source
Tri. violaceum = format: cell-based, Trichophyton violaceum
S. aureus [25] = format: cell-based, Staphylococcus aureus; remark: listed apart in the source
Penicillium = format: cell-based, Penicillium spp.
[26] = rabbit, in vivo
Procedure: Six healthy New Zealand White rabbits were selected for study. The rabbits' eyes were judged free of irritation prior to the study by examining with a pen light and under UV light after installation of 2% fluorescein stain. A 1% solution of the trioxolane or diperoxide derivative of linalool was prepared in isopropyl myristate. A 0.1 ml portion of this test solution was instilled into the lower conjunctival sac of one eye of each rabbit. The lids were held closed for one second. The opposite eye of each rabbit received 0.1 ml of the isopropyl myristate, as control. […] At 24, 48, and 72 hours post dosing, the eyes were examined with a pen light and re-examined with UV light following fluorescein staining of the cornea.

O.O.O.O.O.O.O.O.O.O=C([O-])[C@@H]1[O][Sb](=[O])([O][Sb]2(=[O])[O][C@H]([C@H](O)CO)[C@H](O)[C@H](C(=O)[O-])[O]2)[O][C@H]([C@H](O)CO)[C@@H]1O.[Na+].[Na+].[Na+] (some centres unmarked) [Pentostam, reference compound]
Dead, Day 14 (Leishmania major; ip): 1 dead | Lesions, Day 0 (Leishmania major; ip): Large lesions | Lesions, Day 14 (Leishmania major; ip): Large lesions breaking

CCC1OOC(CCO)O1 (stereo not drawn) [Trioxolane derivative of cis 3-hexene-1-ol]
MIC (Archromobacter): 60 µg/mL (≈ 405 µM) | MBC (Pseudomonas [1]): 1250 µg/mL (≈ 8440 µM) | Time to kill myeloma cell line [2]: ≤ 48 h | MIC agar (Salmonella [3]): 7 µg/mL (≈ 47.2 µM) | MIC agar (Candida [4]): 31 µg/mL (≈ 209 µM) | MIC broth (Candida [5]): 310 µg/mL (≈ 2090 µM) | Death, Day 14 (Leishmania major): No death | General health, Day 14 (Leishmania major): Animals healthy and active | Lesions, Day 0 (Leishmania major): Large lesions | Lesions, Day 14 (Leishmania major): Lesions small and dry | Dead, Day 14 (Leishmania major; ip): 2 dead | Lesions, Day 0 (Leishmania major; ip): Large lesions | Lesions, Day 14 (Leishmania major; ip): Lesions scabbed | Palate involvement, Day 14 (Leishmania major; ip): 2 | MIC broth (Pseudomonas [6]): 620 µg/mL (≈ 4180 µM) | MIC agar (Shigella [7]): 7 µg/mL (≈ 47.2 µM) | Time to kill human spermatozoa (human spermatozoa): ≤ 1 min | MIC agar (EPEC/ETEC [8]): 31 µg/mL (≈ 209 µM) | MIC (Kiebisella): 7 µg/mL (≈ 47.2 µM) | MIC (Ph. verrucose): 150 µg/mL (≈ 1010 µM) | MIC (S. epidermidis): 25 µg/mL (≈ 169 µM) | lowest concentration inhibiting at least one isolate (S. epidermidis): 0.031 mg/mL | MIC (Shigella [9]): 250 µg/mL (≈ 1690 µM) | MBC (Candida [10]): 1250 µg/mL (≈ 8440 µM) | MIC (EPEC/ETEC [11]): 250 µg/mL (≈ 1690 µM) | MIC broth (Salmonella [12]): 150 µg/mL (≈ 1010 µM) | MIC (C. albicans): 31 µg/mL (≈ 209 µM) | MIC broth (Shigella [13]): 620 µg/mL (≈ 4180 µM) | MIC (Tri. canis): 150 µg/mL (≈ 1010 µM) | MBC (Salmonella [14]): 2500 µg/mL (≈ 16900 µM) | MBC (S. aureus [15]): 1250 µg/mL (≈ 8440 µM) | MIC broth (EPEC/ETEC [16]): 620 µg/mL (≈ 4180 µM) | Activity compared with Geraniol trioxolane [17]: more active than Geraniol trioxolane | Activity compared with conventional drugs [17]: more active than conventional drugs | Effect of water on direct bioactivity [17]: significantly reduces the direct bioactivity | MIC broth (S. aureus [18]): 620 µg/mL (≈ 4180 µM) | MBC (EPEC/ETEC [19]): 1250 µg/mL (≈ 8440 µM) | Clearing parasites from the viscera (Leishmania donova): perform better than Pentostam | MIC (Salmonella [20]): 7 µg/mL (≈ 47.2 µM) | MIC (Pseudomonas [21]): 7 µg/mL (≈ 47.2 µM) | MIC (N. gonorrhoea): 3.5 µg/mL (≈ 23.6 µM) | lowest concentration inhibiting at least one isolate (N. gonorrhoea): 0.0019 mg/mL | New clones of lymphocytes in bone marrow (lymphocytes): increase in new clones of lymphocytes | MBC (Shigella [22]): 1250 µg/mL (≈ 8440 µM) | MIC (Cryptococcus): 15 µg/mL (≈ 101 µM) | MIC agar (Pseudomonas [23]): 7 µg/mL (≈ 47.2 µM) | MIC (E. coli): 120 µg/mL (≈ 810 µM) | MIC agar (S. aureus [24]): 120 µg/mL (≈ 810 µM) | MIC (Tri. violaceum): 150 µg/mL (≈ 1010 µM) | MIC (S. aureus [25]): 250 µg/mL (≈ 1690 µM) | lowest concentration inhibiting at least one isolate (S. aureus [25]): 0.031 mg/mL | MIC (Penicillium): 310 µg/mL (≈ 2090 µM)

linalool trioxolane
Ocular irritation [26]: non-irritant to ocular tissues of the rabbit
